Results reported in patent US20250066853A1, “PHARMACEUTICAL COMPOSITION FOR THE TREATMENT AND/OR PREVENTION OF ANEURYSMS, DIAGNOSTIC SUPPORT METHOD FOR ANEURYSMS, AND METHOD FOR EVALUATING ANEURYSM THERAPEUTICS” (RIKEN, priority 2021, published 2025).
“Also recorded” adds a separate entry of the source.

Key:
[1] = tested on: mouse model of cerebral aneurysms (PDGFRβ p.559_562del); assay: Mouse cerebral aneurysm model with AAV-introduced PDGFRβ p.559_562del, basilar artery size (Example 2); assay type: in vivo; conditions: mice with AAV PDGFRβ p.559_562del, daily i.p. sunitinib 40, axitinib 25, dasatinib 10 mg/kg/day, 28 days post-infection, versus vehicle, sunitinib p<0.05 (Mann-Whitney U)
From the text: A mouse CA (cerebral aneurysm) model was constructed by applying adeno-associated virus (AAV) around the non-branching region of the basilar artery. HEK293T cells were transfected with pHelper vector, pRC vector, and a pAAV vector comprising the target gene. After culturing, AAV was harvested using the iodixanol gradient method. After determining the AAV serotype, it was mixed with a hydrogel of PBS comprising 15% Pluronic F-127. The virus concentrations (vg/mL) in the hydrogels of AAV-CMV-EGFP, AAV-CMV-PDGFRβ, and AAV-CMV-PDGFRβ p559_562del were 2×10^13, 1×10^12, and 1×10^12, respectively.
Male C57BL/6N mice aged 8-11 weeks (CLEA Japan) were deeply anesthetized with medetomidine (0.3 mg/kg), midazolam (4 mg/kg), and butorphanol (5 mg/kg) administered intraperitoneally (i.p.). The basilar artery was exposed as previously described (Yonekura et al., 2004). Three microliters of hydrogel were applied to the basilar artery and removed after 5 minutes. This application was repeated two more times. The mice were divided into three subgroups (control, PDGFRβ(wt), and PDGFRβ(mutant)). […]
To evaluate the effect of the virus, sections were stained with Elastica Van Gieson (EVG) method, selecting the largest artery section from each brain sample for measurement. […] The area and perimeter of the stained sites were calculated using FUJI-ImageJ software (J. Schindelin et al., Nature Methods, 2012).

[2] = tested on: AHNAK mutation-induced cerebral aneurysm model mice; assay: AHNAK mutation-induced (AHNAKmini p.G3819A) cerebral aneurysm model mice, maximum diameter of cerebral blood vessels (Example 5); assay type: in vivo, mouse; conditions: day 7 to day 28 post-infection, 20 μL/g/day; PD173074 0.1 mg/mL, LY294002 0.02 mg/mL, staurosporine 0.02 mg/mL; versus non-administered group; PD173074 p<0.05
From the text: To introduce AHNAK mutations into experimental animals, it is necessary to incorporate the gene into viral vectors or other vehicles. However, AHNAK is a large protein with a length of 5890 amino acids, making it difficult to incorporate its full-length gene into viral vectors. […] AHNAK has many repeat structures (CRU: Consensus Central Repeat Unit), and the mutation sites are also within the CRU. Therefore, we designed a low-molecular-weight version of AHNAK (AHNAKmini) that combines the […] in this order. […] The amino acid sequence of AHNAKmini is shortened to 1943 amino acids with an N-terminal FLAG tag.
The DNA encoding the AHNAKmini with the p.G3819A mutation was chemically synthesized and subcloned directly into a pAAV vector to prepare pAAV-CMV-AHNAK (SEQ ID NO: 19). This was further modified to have the mutation corresponding to p.G3819A (specifically, changing the 3156th guanine (g) in SEQ ID NO: 19 to cytosine (c)) to prepare pAAV-CMV-AHNAK p.G3819A. HEK293T cells were transfected with the pHelper vector, pRC vector, and pAAV-CMV-AHNAK p.G3819A, and cultured, after which AAV produced by the iodixanol gradient method was harvested (AAV-CMV-AHNAK p.G3819A). As a control, AAV encoding EGFP (AAV-CMV-EGFP) was similarly prepared. After determining the […] of AAV, it was mixed with a hydrogel of PBS comprising 15% Pluronic F-127.
Male C57BL/6N mice aged 8-11 weeks (CLEA Japan) were exposed to the middle cerebral artery according to the protocol described in A. Tamura et al., Journal of Cerebral Blood Flow and Metabolism, 1: 53-60 (1981). The hydrogel comprising AAV was applied multiple times at 5-minute intervals. The skull was covered with temporal fascia, the soft tissue was returned to its original position, and the skin was sutured. The total application amounts of AAV-CMV-EGFP and AAV-CMV-AHNAK p.G3819A were 2.4×10^10 vg and 3.3×10^11 vg, respectively. […]
After decapitation, the cerebral blood vessels were exposed, and the maximum diameter of the cerebral blood vessels was measured. […]

[3] = tested on: mouse model of cerebral aneurysms (PDGFRβ p.559_562del); assay: Mouse cerebral aneurysm model with PDGFRβ p.559_562del, low-dose treatment from day 7, maximum diameter of basilar artery (Example 3)
Protocol: After deep anesthesia with isoflurane, the mice were decapitated, and the cerebral blood vessels were exposed to measure the maximum diameter of the basilar artery. Each drug administration condition was tested on three mice.

Q: For `CNC(=O)c1ccccc1Sc1ccc2c(/C=C/c3ccccn3)n[nH]c2c1` [axitinib], which “Enlargement (dilation) of basilar artery” value ([1]; listed as avitinib) is on record?
A: Its value is “suppressed this arterial dilation”.

Q: For `O=c1cc(N2CCOCC2)oc2c(-c3ccccc3)cccc12` [LY294002], which “Increase in maximum cerebral vessel diameter” value (shortened to “Increase”) [2] is on record?
A: The value was “suppressed in all mice”.

Q: Which “Maximum diameter of basilar artery (cerebral vessel expansion) compared to sunitinib” value ([3]; i.p. daily day 7 to day 28, axitinib 0.76, dasatinib 1.0, sunitinib 0.78 mg/kg/day, three mice each, dasatinib vs sunitinib p=0.040) does the source give for `Cc1nc(Nc2ncc(C(=O)Nc3c(C)cccc3Cl)s2)cc(N2CCN(CCO)CC2)n1` [dasatinib] here?
A: Its value is “significantly suppressed cerebral vessel expansion”.

Q: What about the “Treatment effect on cerebral artery expansion (rank order)” value ([3]; low concentration ranges, administration from day 7 after mutation introduction) of the same molecule?
A: Its value is “highest for dasatinib; also recorded: high treatment/preventive effects”.

Q: And the “Enlargement (dilation) of basilar artery” value [1]?
A: The value was “suppressed this arterial dilation”.

Q: Which “Increase” value [2] does the source give for `CN[C@@H]1C[C@H]2O[C@@](C)([C@@H]1OC)n1c3ccccc3c3c4c(c5c6ccccc6n2c5c31)C(=O)NC4` [staurosporine] here?
A: Its value is “suppressed in all mice”.

Q: For `CCN(CC)CCCCNc1ncc2cc(-c3cc(OC)cc(OC)c3)c(NC(=O)NC(C)(C)C)nc2n1` [PD173074], which “Increase” value [2] is on record?
A: Its value is “significant suppression”.
